Data reported in ChEMBL document CHEMBL5550150, “Discovery of 9H-pyrimido[4,5-b]indole derivatives as dual RET/TRKA inhibitors” (Bioorg Med Chem, 2024).
The source made the active and inactive calls. The calls are words filed in the database; no cut-off is given here.

Legend:
[1] = biological target: T1, High affinity nerve growth factor receptor (Homo sapiens, UniProt P04629); assay: Inhibition of TRK autophosphorylation in human KM12 cells at 0.01 to 1 uM measured after 24 hrs by Western blot analysis; type: cell-based; conditions: dose 0.01-1 µM
Target sequence in this assay (P04629 33-796 limits assumed): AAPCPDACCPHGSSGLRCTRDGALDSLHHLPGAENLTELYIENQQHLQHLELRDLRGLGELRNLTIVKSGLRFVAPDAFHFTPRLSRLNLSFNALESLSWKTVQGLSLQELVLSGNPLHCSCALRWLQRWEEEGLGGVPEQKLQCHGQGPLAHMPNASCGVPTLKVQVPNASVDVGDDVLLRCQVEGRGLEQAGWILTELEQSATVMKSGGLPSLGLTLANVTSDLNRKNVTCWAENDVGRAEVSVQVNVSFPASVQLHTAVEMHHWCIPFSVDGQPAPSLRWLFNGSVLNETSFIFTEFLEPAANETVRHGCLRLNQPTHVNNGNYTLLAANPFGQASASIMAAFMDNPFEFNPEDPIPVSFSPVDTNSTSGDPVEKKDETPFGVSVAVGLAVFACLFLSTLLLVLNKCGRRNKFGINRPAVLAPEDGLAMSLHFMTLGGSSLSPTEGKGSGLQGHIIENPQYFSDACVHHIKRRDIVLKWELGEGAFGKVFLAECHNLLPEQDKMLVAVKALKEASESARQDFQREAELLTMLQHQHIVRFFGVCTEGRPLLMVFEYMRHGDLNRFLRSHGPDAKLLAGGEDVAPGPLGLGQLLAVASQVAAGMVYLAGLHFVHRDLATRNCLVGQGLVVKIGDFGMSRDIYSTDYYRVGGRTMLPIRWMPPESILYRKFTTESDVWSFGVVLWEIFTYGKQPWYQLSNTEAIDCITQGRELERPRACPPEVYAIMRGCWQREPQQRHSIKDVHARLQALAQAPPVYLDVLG

LC-2-ad [2] = assay: Induction of cell cycle arrest in human LC-2-ad cells assessed as accumulation of cells at G1 phase at 1 uM incubated for 24 hrs by flow cytometry analysis; type: functional, cell-based
[3] = biological target: T1, High affinity nerve growth factor receptor; assay: Inhibition of TRK autophosphorylation (unknown origin)
Target sequence in this assay (P04629 33-796 limits assumed): as above

[4] = biological target: T1, High affinity nerve growth factor receptor; assay: Inhibition of TRK autophosphorylation in human LC-2-ad cells at 0.01 to 1 uM measured after 24 hrs by Western blot analysis; type: cell-based; conditions: dose 0.01-1 µM
Target sequence in this assay (P04629 33-796 limits assumed): as above

KM12 [5] = assay: Induction of cell cycle arrest in human KM12 cells assessed as accumulation of cells at G1 phase at 1 uM incubated for 24 hrs by flow cytometry analysis; type: functional, cell-based
[6] = biological target: Proto-oncogene tyrosine-protein kinase receptor Ret (Homo sapiens, UniProt P07949); assay: Inhibition of 5FAM-tagged RET (unknown origin) using 5FAM-EPLYWSFPA as substrate incubated for 60 mins
Sequence of Proto-oncogene tyrosine-protein kinase receptor Ret (P07949 whole entry): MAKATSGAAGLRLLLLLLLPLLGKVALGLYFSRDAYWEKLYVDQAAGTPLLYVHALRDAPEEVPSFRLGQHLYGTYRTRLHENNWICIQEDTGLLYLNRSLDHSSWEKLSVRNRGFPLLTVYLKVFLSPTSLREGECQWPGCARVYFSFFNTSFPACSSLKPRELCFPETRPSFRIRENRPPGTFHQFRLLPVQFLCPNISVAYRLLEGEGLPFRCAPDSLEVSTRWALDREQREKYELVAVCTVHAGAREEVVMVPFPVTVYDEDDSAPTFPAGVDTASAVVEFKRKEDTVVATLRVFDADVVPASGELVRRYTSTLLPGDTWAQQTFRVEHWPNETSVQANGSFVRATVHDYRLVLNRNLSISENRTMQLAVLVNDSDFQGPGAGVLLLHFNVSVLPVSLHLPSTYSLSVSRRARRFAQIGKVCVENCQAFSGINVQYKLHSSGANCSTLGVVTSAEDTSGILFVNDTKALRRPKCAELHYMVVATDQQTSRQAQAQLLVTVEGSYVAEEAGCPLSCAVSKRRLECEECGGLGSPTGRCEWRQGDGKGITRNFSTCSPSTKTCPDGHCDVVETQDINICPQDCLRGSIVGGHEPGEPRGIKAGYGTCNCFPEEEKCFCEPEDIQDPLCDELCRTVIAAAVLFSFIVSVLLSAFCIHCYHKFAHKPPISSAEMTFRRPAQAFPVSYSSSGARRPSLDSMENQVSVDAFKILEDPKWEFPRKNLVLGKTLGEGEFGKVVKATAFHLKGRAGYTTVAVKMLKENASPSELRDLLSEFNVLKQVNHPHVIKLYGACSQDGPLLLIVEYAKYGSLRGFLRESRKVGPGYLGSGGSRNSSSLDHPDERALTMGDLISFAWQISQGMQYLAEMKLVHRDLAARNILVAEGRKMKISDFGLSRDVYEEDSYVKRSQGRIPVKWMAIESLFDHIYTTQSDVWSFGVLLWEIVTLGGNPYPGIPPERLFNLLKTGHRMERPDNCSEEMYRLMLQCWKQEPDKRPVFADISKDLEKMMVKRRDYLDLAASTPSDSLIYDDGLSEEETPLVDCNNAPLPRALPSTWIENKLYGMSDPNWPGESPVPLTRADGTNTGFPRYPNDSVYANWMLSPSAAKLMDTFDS

[7] = biological target: T1, High affinity nerve growth factor receptor; assay: Inhibition of TRK (unknown origin)
Target sequence in this assay (P04629 whole entry): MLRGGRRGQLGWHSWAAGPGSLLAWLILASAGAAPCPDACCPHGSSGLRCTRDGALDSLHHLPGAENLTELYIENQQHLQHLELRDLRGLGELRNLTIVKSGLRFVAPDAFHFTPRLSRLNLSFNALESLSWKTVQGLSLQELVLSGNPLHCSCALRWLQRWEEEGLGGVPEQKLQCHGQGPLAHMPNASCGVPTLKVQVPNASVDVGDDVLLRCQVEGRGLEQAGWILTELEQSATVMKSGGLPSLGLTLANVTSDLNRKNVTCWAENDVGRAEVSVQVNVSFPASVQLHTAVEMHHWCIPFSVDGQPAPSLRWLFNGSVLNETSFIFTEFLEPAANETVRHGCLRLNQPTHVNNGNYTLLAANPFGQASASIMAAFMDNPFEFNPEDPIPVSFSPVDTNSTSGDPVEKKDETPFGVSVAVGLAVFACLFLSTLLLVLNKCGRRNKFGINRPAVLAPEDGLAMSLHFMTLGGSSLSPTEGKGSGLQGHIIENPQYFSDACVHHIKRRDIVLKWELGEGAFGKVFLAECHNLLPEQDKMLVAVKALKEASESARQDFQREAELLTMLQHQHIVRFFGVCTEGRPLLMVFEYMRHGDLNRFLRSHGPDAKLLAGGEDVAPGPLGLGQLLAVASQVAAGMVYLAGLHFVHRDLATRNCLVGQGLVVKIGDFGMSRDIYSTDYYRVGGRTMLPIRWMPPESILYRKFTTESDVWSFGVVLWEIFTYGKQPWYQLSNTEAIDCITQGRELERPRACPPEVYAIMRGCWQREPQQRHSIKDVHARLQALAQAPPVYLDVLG

KM12 [8] = assay: Antiproliferative activity against human KM12 cells harbouring TRK assessed as reduction in cell viability; type: functional
A549 [9] = assay: Antiproliferative activity against human A549 cells harbouring KRAS assessed as reduction in cell viability; type: functional
LC-2-ad [10] = assay: Antiproliferative activity against human LC-2-ad cells harbouring RET assessed as reduction in cell viability; type: functional
A549 [11] = assay: Induction of cell cycle arrest in human A549 cells assessed as accumulation of cells at G1 phase at 0.01 uM incubated for 24 hrs by flow cytometry analysis; type: functional, cell-based
LC-2-ad [12] = assay: Induction of cell cycle arrest in human LC-2-ad cells assessed as accumulation of cells at G1 phase at 0.01 uM incubated for 24 hrs by flow cytometry analysis; type: functional, cell-based
KM12 [13] = assay: Induction of cell cycle arrest in human KM12 cells assessed as accumulation of cells at G1 phase at 0.01 uM incubated for 24 hrs by flow cytometry analysis; type: functional, cell-based

| Compound | Activity (LC-2-ad [2]) | inhibition [3] | Activity (KM12 [5]) | GC50 (KM12 [8]) | GC50 (A549 [9]) | GC50 (LC-2-ad [10]) | also measured |
| --- | --- | --- | --- | --- | --- | --- | --- |
| Cn1cc(-c2ccc3c(c2)[nH]c2ncnc(Nc4ccc(CC(=O)Nc5cc(C(C)(C)C)nn5C)cc4)c23)cn1 | Active | Active | Active | – | – | – | inhibition [1]: Active; inhibition [4]: Active |
| Cn1cc(-c2ccc3c(c2)ncn3-c2ccc(CC(=O)Nc3cc(C(C)(C)C)on3)cc2)cn1 | – | – | – | – | – | – | IC50 [6]: 1 nM; IC50 [7]: 1.6 nM |
| Cn1cc(-c2ccc3c(c2)[nH]c2ncnc(Nc4ccc(CC(=O)Nc5cc(C(C)(C)C)on5)cc4)c23)cn1 | Active | Active | Active | – | – | – | – |
| COCCn1cc(-c2ccc3c(c2)[nH]c2ncnc(Nc4ccc(CC(=O)Nc5cc(C(C)(C)C)on5)cc4)c23)cn1 | – | – | – | 590 nM | 5880 nM | 360 nM | – |
| Cn1nc(C(C)(C)C)cc1NC(=O)Cc1ccc(Nc2ncnc3[nH]c4ccccc4c23)cc1 | Active | Active | Active | – | – | – | inhibition [1]: Active; inhibition [4]: Active |
| CNC(=O)c1cc(Oc2ccc(NC(=O)Nc3ccc(Cl)c(C(F)(F)F)c3)cc2)ccn1 [SORAFENIB] | – | – | – | 3820 nM | 7200 nM | 540 nM | Activity (A549 [11]): Active; Activity (LC-2-ad [12]): Active; Activity (KM12 [13]): Active |
| O=C(Cc1ccc(Nc2ncnc3[nH]c4ccccc4c23)cc1)Nc1cccc(C(F)(F)F)c1 | – | – | – | 490 nM | >10000 nM | 940 nM | – |
| C[C@@H]1CCc2ncc(F)cc2[C@H]2CCCN2c2ccn3ncc(c3n2)C(=O)N1 [SELITRECTINIB] | – | – | – | 5 nM | >40000 nM | 25980 nM | Activity (A549 [11]): Active; Activity (LC-2-ad [12]): Active; Activity (KM12 [13]): Active |
| COc1cc2nccc(Oc3ccc(NC(=O)C4(C(=O)Nc5ccc(F)cc5)CC4)cc3)c2cc1OC [CABOZANTINIB] | – | – | – | – | – | – | IC50 [7]: 79 nM |
